{
  "source": "patent US5298622A",
  "about": "“Spiroindane opiate analogs” (priority 1993, dated 1994)",
  "key": {"[1]": {"tested_on": "mouse vas deferens (MVD), delta opioid receptor", "assay": "Mouse vas deferens (MVD) assay, agonism", "format": "cell-based", "conditions": "% Inhibition at 1000 nM (footnote 4); for inhibition at 1 µM: Mus musculus", "description": "(§1) 2. Mouse Vas (MVD). This assay was performed according to the description by G. Henderson et al., Brit. J. Pharmacol., 46, 764 (1972). Both vasa deferentia were dissected out of mice and mounted singly through two platinum ring electrodes in a 10 ml organ bath. The bath contained Krebs bicarbonate solution that was continuously bubbled with 95% O2 and 5% CO2. The organ bath was maintained at 37° C. The tissue was attached to an isometric transducer and stimulated transmurally with rectangular pulses ([…], 1 ms duration, supramaximal voltage). Drugs were added cumulatively to the bath in 10- to 50-μl amounts and washed out after noting their maximum effect.\n(§2) Concentration-response curves were obtained in the absence (control) and the presence of the antagonist are expressed as IC50 values. The IC50 ratio represents the IC50 in the presence of the antagonist divided by the control IC50 value in the same tissue. Therefore, a high IC50 ratio represents a correspondingly high degree of antagonism at a particular receptor. This IC50 ratio was employed to calculate the Ke value using the equation Ke=[antagonist]/(IC50 ratio-1). Therefore, a low Ke represents a correspondingly high degree of binding at a particular receptor."}, "[2]": {"tested_on": "Guinea Pig Ileal Longitudinal Muscle (GPI), mu opioid receptor", "assay": "cells", "format": "cell-based", "description": "(§3) 1. Guinea Pig Ileal Longitudinal Muscle (GPI). Ilea from guinea pigs were taken approximately 10 cm from the ileocecal junction, and a strip of longitudinal muscle with the myenteric plexus attached was prepared by the method of H. B. Rang et al., Brit. J. Pharmacol., 22, 356 (1964). A 1 cm portion of this strip was then mounted between two platinum electrodes placed in a 10 ml organ bath and connected to an isometric transducer; contractions were recorded on a polygraph. Contractions of the ileal strip were initiated by supramaximal rectangular pulses in all preparations (80 V of 0.5 ms duration at a frequency of 0.1 Hz). Krebs bicarbonate solution containing 1.25 μM chlorpheniramine maleate was the bathing solution and was continuously bubbled with 95% O2 and 5% CO2. The organ bath was maintained at 36°-37° C. The longitudinal muscle strip was allowed to equilibrate with continuous stimulation for a minimum of 90 min. Cumulative concentration-response curves were determined after drugs were added to the bath in 10- to 50-μl amounts and washed out with two 10 ml portions of buffer after noting their maximum effects.\nas §2"}, "mu opioid receptor": {"target": "T1, mu opioid receptor (Cavia porcellus, UniProt A0ACM8Q262)", "T1 construct": "antagonism of morphine", "T1 sequence (A0ACM8Q262 1-400)": "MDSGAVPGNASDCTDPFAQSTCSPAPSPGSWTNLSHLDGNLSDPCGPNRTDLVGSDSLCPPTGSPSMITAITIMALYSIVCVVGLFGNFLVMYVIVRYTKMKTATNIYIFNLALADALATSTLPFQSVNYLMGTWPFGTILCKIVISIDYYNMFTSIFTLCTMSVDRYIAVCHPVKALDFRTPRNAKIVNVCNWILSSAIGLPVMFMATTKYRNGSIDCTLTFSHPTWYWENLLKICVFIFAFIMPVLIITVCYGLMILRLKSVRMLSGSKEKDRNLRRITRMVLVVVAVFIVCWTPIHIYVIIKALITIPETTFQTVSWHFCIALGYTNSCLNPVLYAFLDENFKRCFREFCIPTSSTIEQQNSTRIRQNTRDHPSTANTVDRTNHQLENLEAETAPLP", "assay": "GPI assay, antagonism of morphine (mu)", "format": "cell-based, guinea pig", "conditions": "antagonist 100 nM, 15 min; for Kb: read-out: GPI Antagonism Ke (Morphine), Ke=[antagonist]/(IC50 ratio-1); for GPI Antagonism IC50 Ratio (Morphine): agonist morphine (mu)", "description": "as §3, §2"}, "delta opioid receptor [3]": {"target": "T2, delta opioid receptor (Mus musculus, UniProt P32300)", "T2 construct": "Both vasa deferentia were dissected out of mice; from tissue; host or cells: mouse vas deferens", "T2 sequence (P32300 whole entry)": "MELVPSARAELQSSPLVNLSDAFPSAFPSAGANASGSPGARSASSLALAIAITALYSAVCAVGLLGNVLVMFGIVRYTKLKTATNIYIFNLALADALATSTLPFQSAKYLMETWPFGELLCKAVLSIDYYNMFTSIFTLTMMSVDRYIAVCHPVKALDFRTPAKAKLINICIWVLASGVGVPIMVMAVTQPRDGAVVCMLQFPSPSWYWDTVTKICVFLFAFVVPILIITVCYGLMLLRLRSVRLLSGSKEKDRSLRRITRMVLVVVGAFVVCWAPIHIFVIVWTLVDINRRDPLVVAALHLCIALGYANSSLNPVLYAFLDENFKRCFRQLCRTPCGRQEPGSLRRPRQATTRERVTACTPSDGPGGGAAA", "assay": "MVD assay, antagonism of DADLE (delta)", "format": "cell-based", "conditions": "for Kb: read-out: MVD Antagonism Ke (DADLE); for δ-antagonist activity (in words): δ-selective agonist; for MVD Antagonism IC50 Ratio (DADLE): antagonist 100 nM, 15 min, agonist DADLE (delta)", "description": "as §1, §2"}, "kappa opioid receptor": {"target": "T3, kappa opioid receptor (Cavia porcellus, UniProt P41144)", "T3 construct": "a strip of longitudinal muscle with the myenteric plexus attached was prepared; from tissue; host or cells: guinea pig ileum, longitudinal muscle strip with myenteric plexus", "T3 sequence (P41144 whole entry)": "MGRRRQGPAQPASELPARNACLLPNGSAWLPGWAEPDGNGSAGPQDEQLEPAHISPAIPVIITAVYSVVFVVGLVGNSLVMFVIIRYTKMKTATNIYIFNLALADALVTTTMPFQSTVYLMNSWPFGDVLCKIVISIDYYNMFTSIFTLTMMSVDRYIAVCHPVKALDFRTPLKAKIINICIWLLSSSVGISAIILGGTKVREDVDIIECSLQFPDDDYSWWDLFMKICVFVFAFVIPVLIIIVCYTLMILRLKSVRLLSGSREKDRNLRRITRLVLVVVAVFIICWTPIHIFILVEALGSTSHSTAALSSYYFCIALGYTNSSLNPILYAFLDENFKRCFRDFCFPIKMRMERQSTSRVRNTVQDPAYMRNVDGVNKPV", "assay": "GPI assay, antagonism of ethylketazocine (EK, kappa)", "format": "cell-based, guinea pig", "conditions": "antagonist 100 nM, 15 min; agonist ethylketazocine (kappa)", "description": "as §3\nConcentration-response curves were obtained in the absence (control) and the presence of the antagonist are expressed as IC50 values. The IC50 ratio represents the IC50 in the presence of the antagonist divided by the control IC50 value in the same tissue. […]"}, "ethanol drinking": {"tested_on": "ethanol drinking", "conditions": "J. C. Froehlich et al. 1991; cited from earlier work"}, "[4]": {"tested_on": "rats selectively bred for high voluntary ethanol drinking", "conditions": "Ser. No. 07/750,109; cited from earlier work"}, "delta opioid receptor [5]": {"tested_on": "delta opioid receptor", "conditions": "U.S. Pat. No. 4,816,586; cited from earlier work"}, "rat model of alcoholism": {"tested_on": "rat model of alcoholism", "conditions": "J. C. Froehlich et al. 1990; cited from earlier work"}, "recovering alcoholics": {"tested_on": "recovering alcoholics", "conditions": "J. R. Volpicelli et al. 1990; cited from earlier work"}, "[6]": {"conditions": "GPI, % Inhibition at 1000 nM (footnote 4)"}},
  "note": "Non-standard residues stand in square brackets, D forms with d. Residues, ends and D or L forms follow the SMILES beside them. *: point of attachment. Tyr(Nα,Nα-allyl2) = C=CCN(CC=C)[C@@H](Cc1ccc(O)cc1)C(=O)*; Aib = CC(C)(N)C(=O)O",
  "data": [
    {"compound": "7-(4',5'-Benz-2'-spiroindano)naltrexone and 7-(6',7'-Benz-2'-spiroindano)naltrexone [Compound 3e]", "values": [
      {"measurement": "MVD Agonism % Inhibition", "setting": "[1]", "value": 15.6, "unit": "%"},
      {"measurement": "GPI Agonism % Inhibition", "setting": "[2]; [6]", "value": 20.3, "unit": "%"}
    ]},
    {"compound": "7-(4,-Methoxy-2,-spiroindano)naltrexone and 7-(7' -Methoxy-2'-spiroindano)-naltrexone [Compound 3b]", "values": [
      {"measurement": "MVD Agonism % Inhibition", "setting": "[1]", "value": 23.1, "unit": "%"},
      {"measurement": "Kb", "setting": "mu opioid receptor", "value": 13.4, "unit": "nM"},
      {"measurement": "GPI Agonism % Inhibition", "setting": "[2]; [6]", "value": -15.0, "unit": "%"}
    ]},
    {"compound": "7-(5'-Methoxy-2'-spiroindano)naltrexone and 7-(6'-Methoxy-2'-spiroindano)naltrexone [Compound 3c]", "values": [
      {"measurement": "MVD Agonism % Inhibition", "setting": "[1]", "value": 10.5, "unit": "%"},
      {"measurement": "GPI Agonism % Inhibition", "setting": "[2]; [6]", "value": -8.8, "unit": "%"}
    ]},
    {"compound": "O=C1[C@@H]2Oc3c(O)ccc4c3[C@@]23CCN(CC2CC2)[C@H](C4)[C@]3(O)CC12Cc1ccccc1C2", "note": "[Compound 3a]", "values": [
      {"measurement": "Kb", "setting": "delta opioid receptor [3]", "value": 0.78, "unit": "nM"},
      {"measurement": "δ-antagonist activity (in words)", "setting": "delta opioid receptor [3]", "value": "potent δ-antagonist activity"},
      {"measurement": "Kb", "setting": "mu opioid receptor", "value": 41, "unit": "nM"}
    ]},
    {"compound": "O=C1[C@@H]2Oc3c(O)ccc4c3[C@@]23CCN(CC2CC2)[C@H](C4)[C@]3(O)CC12Cc1cc3ccccc3cc1C2", "note": "[Compound 3d, 7-(5',6'-Benz-2'-spiroindano)naltrexone]", "values": [
      {"measurement": "MVD Antagonism IC50 Ratio (DADLE)", "setting": "delta opioid receptor [3]", "value": 428},
      {"measurement": "Kb", "setting": "delta opioid receptor [3]", "value": 0.234, "unit": "nM"},
      {"measurement": "δ-antagonist activity (in words)", "setting": "delta opioid receptor [3]", "value": "most potent antagonist"},
      {"measurement": "inhibition at 1 µM", "setting": "[1]", "value": 15.4, "unit": "%"},
      {"measurement": "GPI Antagonism IC50 Ratio (Morphine)", "setting": "mu opioid receptor", "value": 0.97},
      {"measurement": "GPI Antagonism IC50 Ratio (EK)", "setting": "kappa opioid receptor", "value": 0.18},
      {"measurement": "agonist activity for μ-receptors (in words)", "setting": "[2]", "value": "potent agonist activity"},
      {"measurement": "IC50", "setting": "[2]; Cavia porcellus, read-out: GPI Agonism IC50", "value": 253, "unit": "nM"},
      {"measurement": "GPI Agonism Potency (relative to morphine)", "setting": "[2]; GPI, morphine = 1", "value": 0.47}
    ]},
    {"compound": "O=C1[C@@H]2Oc3c(O)ccc4c3[C@@]23CCN(CC2CC2)[C@H](C4)[C@]3(O)CC12Cc1cccc3cccc(c13)C2", "note": "[Compound 3f, 7-(2',3'-Dihydro-2'-spiroperinaphtheno)naltrexone]", "values": [
      {"measurement": "MVD Antagonism IC50 Ratio (DADLE)", "setting": "delta opioid receptor [3]", "value": 8},
      {"measurement": "Kb", "setting": "delta opioid receptor [3]", "value": 14.9, "unit": "nM"},
      {"measurement": "inhibition at 1 µM", "setting": "[1]", "value": 13, "unit": "%"},
      {"measurement": "GPI Antagonism IC50 Ratio (Morphine)", "setting": "mu opioid receptor", "value": 0.89},
      {"measurement": "GPI Antagonism IC50 Ratio (EK)", "setting": "kappa opioid receptor", "value": 0.39},
      {"measurement": "inhibition at 1 µM", "setting": "[2]; Cavia porcellus, GPI, % Inhibition at 1000 nM (footnote 4), read-out: GPI Agonism % Inhibition", "value": 16, "unit": "%"}
    ]},
    {"compound": "C=CCN(CC=C)[C@@H](Cc1ccc(O)cc1)C(=O)NC(C)(C)C(=O)NC(C)(C)C(=O)N[C@@H](Cc1ccccc1)C(=O)N[C@@H](CC(C)C)C(=O)O", "note": "[ICI 174864, N,N-diallyl-Tyr-Aib-Aib-Phe-Leu-OH] ({Tyr(Nα,Nα-allyl2)}-[Aib][Aib]FL-OH)", "values": [
      {"measurement": "duration of action", "setting": "ethanol drinking", "value": "very short duration of action"},
      {"measurement": "ethanol drinking", "setting": "ethanol drinking", "value": "strongly inhibits ethanol drinking"}
    ]},
    {"compound": "Oc1ccc2c3c1O[C@H]1c4oc5ccccc5c4C[C@@]4(O)[C@@H](C2)N(CC2CC2)CC[C@]314", "note": "[NTB]", "values": [
      {"measurement": "ethanol drinking and water intake", "setting": "[4]", "value": "unexpectedly prolonged suppression of ethanol drinking without altering water intake"}
    ]},
    {"compound": "Oc1ccc2c3c1O[C@H]1c4[nH]c5ccccc5c4C[C@@]4(O)[C@@H](C2)N(CC2CC2)CC[C@]314", "note": "[NTI, naltrindole]", "values": [
      {"measurement": "selectivity and potency at delta receptors", "setting": "delta opioid receptor [5]", "value": "highly selective"},
      {"measurement": "ethanol drinking and water intake", "setting": "[4]", "value": "unexpectedly prolonged suppression of ethanol drinking without altering water intake"}
    ]},
    {"compound": "C=CCN1CC[C@]23c4c5ccc(O)c4O[C@H]2C(=O)CC[C@@]3(O)[C@H]1C5", "note": "[Naloxone]", "values": [
      {"measurement": "ethanol and water intake", "setting": "rat model of alcoholism", "value": "suppress ethanol but not water intake"}
    ]},
    {"compound": "O=C1CC[C@@]2(O)[C@H]3Cc4ccc(O)c5c4[C@@]2(CCN3CC2CC2)[C@H]1O5", "note": "[naltrexone]", "values": [
      {"measurement": "incidence of relapse in recovering alcoholics", "setting": "recovering alcoholics", "value": "reduce the incidence of relapse in recovering alcoholics"}
    ]}
  ]
}
